ChEMBL document CHEMBL5653631, “A Potent and Selective ULK1 Inhibitor Suppresses Autophagy and Sensitizes Cancer Cells to Nutrient Stress” (iScience, 2018)

Assays:
[1] = target: Mitogen-activated protein kinase 1 (Homo sapiens) (UniProt P28482); assay: Inhibition of human recombinant Erk2 at 500 nM related to control ULK1
[2] = target: T1, SNF-related serine/threonine-protein kinase (Homo sapiens) (UniProt Q9NRH2); assay: Inhibition of human recombinant SNRK at 500 nM in presence of ATP by radiometric assay relative to control
T1 sequence (whole entry): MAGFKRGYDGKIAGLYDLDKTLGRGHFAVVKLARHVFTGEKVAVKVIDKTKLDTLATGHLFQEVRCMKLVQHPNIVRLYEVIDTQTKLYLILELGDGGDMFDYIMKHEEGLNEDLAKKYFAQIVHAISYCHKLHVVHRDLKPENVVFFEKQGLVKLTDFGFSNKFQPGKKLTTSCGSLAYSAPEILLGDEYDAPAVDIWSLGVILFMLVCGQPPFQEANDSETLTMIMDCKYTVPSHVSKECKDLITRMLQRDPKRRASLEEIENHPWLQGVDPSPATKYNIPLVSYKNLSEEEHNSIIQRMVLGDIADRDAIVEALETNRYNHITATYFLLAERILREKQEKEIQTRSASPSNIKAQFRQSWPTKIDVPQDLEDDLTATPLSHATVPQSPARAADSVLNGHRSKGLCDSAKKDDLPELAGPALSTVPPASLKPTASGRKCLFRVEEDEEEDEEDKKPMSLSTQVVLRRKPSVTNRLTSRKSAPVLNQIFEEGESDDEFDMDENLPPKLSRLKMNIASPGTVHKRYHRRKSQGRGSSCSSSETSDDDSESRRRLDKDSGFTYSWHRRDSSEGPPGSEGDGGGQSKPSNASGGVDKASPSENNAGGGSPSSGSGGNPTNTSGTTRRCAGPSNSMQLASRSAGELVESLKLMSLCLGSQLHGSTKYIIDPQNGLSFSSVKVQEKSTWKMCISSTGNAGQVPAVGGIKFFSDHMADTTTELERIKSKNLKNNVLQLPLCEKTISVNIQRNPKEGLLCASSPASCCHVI

[3] = target: Misshapen-like kinase 1 (Homo sapiens) (UniProt Q8N4C8); assay: Inhibition of human recombinant MINK at 500 nM in presence of ATP by radiometric assay relative to control
Chain of Misshapen-like kinase 1 (Homo sapiens) (Q8N4C8 whole entry, looked up): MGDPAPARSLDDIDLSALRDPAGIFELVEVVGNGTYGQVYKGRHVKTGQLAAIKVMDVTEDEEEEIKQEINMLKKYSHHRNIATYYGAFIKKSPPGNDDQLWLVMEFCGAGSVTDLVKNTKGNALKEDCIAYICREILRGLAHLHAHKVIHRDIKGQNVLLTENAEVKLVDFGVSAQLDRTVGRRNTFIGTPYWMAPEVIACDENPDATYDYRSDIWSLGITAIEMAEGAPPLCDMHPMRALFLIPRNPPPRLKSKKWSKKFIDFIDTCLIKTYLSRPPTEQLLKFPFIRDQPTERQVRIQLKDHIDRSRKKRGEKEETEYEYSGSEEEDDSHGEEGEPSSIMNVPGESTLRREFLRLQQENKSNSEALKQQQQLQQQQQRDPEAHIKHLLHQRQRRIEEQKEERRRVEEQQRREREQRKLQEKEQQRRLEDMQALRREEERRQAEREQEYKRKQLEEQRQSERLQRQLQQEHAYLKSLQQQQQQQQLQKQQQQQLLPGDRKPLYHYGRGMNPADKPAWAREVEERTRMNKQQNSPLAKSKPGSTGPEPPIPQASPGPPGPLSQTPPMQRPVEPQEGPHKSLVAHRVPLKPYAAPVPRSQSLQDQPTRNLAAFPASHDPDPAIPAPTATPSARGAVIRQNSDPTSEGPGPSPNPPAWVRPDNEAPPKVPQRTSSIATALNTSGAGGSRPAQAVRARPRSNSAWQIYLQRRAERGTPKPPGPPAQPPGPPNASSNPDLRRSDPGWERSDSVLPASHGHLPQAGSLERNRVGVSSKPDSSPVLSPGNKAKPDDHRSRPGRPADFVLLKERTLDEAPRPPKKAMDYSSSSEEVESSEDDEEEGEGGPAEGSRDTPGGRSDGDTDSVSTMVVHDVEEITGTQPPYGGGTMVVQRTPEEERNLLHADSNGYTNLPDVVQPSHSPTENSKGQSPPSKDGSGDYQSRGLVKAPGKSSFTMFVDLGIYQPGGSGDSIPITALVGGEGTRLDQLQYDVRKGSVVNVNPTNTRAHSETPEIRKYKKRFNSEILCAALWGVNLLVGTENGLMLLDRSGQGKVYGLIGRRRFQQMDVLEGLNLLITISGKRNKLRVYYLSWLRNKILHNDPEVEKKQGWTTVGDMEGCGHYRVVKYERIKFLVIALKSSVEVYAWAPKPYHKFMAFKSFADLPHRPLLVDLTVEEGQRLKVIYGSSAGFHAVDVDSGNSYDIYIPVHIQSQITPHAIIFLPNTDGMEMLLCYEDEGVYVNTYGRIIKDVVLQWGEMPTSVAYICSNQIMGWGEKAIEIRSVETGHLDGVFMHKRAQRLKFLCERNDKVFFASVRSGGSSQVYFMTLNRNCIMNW

[4] = target: Cyclin-dependent kinase 2 (Homo sapiens) (UniProt P24941); assay: Inhibition of human recombinant CDK2 at 40 nM related to control ULK1
[5] = target: T2, Serine/threonine-protein kinase TAO1 (Homo sapiens) (UniProt Q7L7X3); assay: Inhibition of human recombinant TAO1 at 40 nM in presence of ATP by radiometric assay relative to control
T2 sequence (whole entry): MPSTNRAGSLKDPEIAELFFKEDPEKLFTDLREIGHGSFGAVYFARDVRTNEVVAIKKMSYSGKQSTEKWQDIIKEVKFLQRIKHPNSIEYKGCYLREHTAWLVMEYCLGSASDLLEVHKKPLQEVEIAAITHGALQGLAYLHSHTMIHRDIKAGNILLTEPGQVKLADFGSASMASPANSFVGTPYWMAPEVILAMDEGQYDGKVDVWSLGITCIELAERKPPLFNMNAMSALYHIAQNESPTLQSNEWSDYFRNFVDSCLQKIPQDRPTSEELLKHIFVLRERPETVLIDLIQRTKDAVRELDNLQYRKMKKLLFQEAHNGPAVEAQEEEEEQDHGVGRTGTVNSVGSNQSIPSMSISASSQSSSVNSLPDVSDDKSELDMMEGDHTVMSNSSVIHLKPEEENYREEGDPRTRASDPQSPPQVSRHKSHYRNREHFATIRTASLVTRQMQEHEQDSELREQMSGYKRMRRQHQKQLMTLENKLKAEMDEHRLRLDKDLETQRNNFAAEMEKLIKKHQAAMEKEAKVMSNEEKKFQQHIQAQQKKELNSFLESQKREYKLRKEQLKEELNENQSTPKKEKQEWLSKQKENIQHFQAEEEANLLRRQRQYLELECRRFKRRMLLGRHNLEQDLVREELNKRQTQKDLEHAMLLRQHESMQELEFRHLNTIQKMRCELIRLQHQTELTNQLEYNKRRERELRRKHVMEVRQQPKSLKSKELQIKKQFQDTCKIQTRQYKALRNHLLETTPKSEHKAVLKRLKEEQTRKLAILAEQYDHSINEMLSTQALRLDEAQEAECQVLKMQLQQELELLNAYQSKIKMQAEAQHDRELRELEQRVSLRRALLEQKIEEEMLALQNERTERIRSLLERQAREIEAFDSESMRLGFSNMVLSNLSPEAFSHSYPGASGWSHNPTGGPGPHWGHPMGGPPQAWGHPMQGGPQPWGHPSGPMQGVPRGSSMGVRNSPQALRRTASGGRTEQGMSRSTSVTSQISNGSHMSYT

[6] = target: T3, Discoidin domain-containing receptor 2 (Homo sapiens) (UniProt Q16832); assay: Inhibition of human recombinant DDR2 at 40 nM related to control ULK1
T3 sequence (whole entry): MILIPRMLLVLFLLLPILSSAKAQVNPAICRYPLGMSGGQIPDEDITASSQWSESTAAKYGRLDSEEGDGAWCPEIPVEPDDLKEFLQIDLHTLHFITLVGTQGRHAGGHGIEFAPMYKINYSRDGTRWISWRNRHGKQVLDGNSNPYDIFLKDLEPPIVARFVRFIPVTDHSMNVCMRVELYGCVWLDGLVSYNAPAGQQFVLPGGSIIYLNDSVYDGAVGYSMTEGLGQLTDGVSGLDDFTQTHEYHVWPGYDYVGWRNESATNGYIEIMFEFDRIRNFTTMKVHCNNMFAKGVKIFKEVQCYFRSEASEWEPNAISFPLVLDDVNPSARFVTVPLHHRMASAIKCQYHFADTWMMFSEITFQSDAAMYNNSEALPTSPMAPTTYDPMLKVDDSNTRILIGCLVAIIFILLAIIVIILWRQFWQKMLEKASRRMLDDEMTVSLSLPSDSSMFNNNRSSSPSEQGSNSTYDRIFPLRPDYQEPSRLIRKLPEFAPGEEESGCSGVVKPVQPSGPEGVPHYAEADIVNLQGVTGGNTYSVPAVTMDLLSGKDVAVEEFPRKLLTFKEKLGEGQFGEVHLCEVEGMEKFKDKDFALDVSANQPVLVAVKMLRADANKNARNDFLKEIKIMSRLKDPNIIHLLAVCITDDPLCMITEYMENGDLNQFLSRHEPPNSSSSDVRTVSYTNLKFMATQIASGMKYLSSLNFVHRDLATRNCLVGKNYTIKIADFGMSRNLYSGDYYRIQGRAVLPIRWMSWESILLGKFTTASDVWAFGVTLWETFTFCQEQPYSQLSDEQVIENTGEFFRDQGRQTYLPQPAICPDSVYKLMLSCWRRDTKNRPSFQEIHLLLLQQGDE

Chain of Mitogen-activated protein kinase 1 (Homo sapiens) (P28482 whole entry): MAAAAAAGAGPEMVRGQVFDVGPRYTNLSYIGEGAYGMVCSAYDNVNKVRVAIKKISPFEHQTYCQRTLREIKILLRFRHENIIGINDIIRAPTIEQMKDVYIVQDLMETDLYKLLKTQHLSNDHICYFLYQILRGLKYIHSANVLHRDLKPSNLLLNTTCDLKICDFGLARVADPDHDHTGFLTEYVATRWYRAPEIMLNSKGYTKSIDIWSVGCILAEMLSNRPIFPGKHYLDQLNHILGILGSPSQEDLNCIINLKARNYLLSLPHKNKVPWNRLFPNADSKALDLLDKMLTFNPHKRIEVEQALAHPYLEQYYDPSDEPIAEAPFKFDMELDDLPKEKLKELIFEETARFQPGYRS

Row | fold change (FC) [1] | inhibition [2] [%] | inhibition [3] [%] | fold change (FC) [4] | inhibition [5] [%] | fold change (FC) [6] | SMILES
1 | 0 | 0 | 4 | – | – | – | CNC(=O)c1ccccc1Oc1nc(Nc2cc(OC)c(OC)c(OC)c2)ncc1Br
2 | – | – | – | 0.4 | 0 | 0 | O=C(N[C@@H](C1CC1)C(F)(F)F)c1cc(-c2cnn3cc(-c4ccc(F)cc4)cnc23)cs1
